Measured values as given in the NIST ThermoML archive (doi:10.1016/j.jct.2012.02.036).
Several values for one entry are separate records, joined by “and”; a condition that tells them apart may be missing. Identical values can stand only once.

Assays:
[1] = xn = mol fraction of the nth substance listed; conditions: 101 kPa, Liquid, x2 = 0; for mass density: Vibrating tube method
[2] = Liquid; for mass density: Vibrating tube method

CC(C)CO [2-methyl-1-propanol] + NCCCO
[1]
Conditions	mass density [kg/m3]	viscosity [mPa·s]
293.15 K	801.8	4.197
303.15 K	793.99	2.873
313.15 K	786.04	1.926
323.15 K	777.85	1.232
333.15 K	769.36	–

CC(C)O [propan-2-ol] + NCCCO
[1]
Conditions	mass density [kg/m3]	viscosity [mPa·s]
293.15 K	785.36	2.318
303.15 K	776.87	1.596
313.15 K	768.07	0.996
323.15 K	758.89	–
333.15 K	749.25	–

CC(C)CO [2-methyl-1-propanol]
[2]
Conditions	mass density, 293.15 K [kg/m3]	mass density, 303.15 K [kg/m3]	mass density, 313.15 K [kg/m3]	mass density, 323.15 K [kg/m3]	mass density, 333.15 K [kg/m3]	viscosity, 293.15 K [mPa·s]	viscosity, 303.15 K [mPa·s]	viscosity, 313.15 K [mPa·s]	viscosity, 323.15 K [mPa·s]	viscosity, 333.15 K [mPa·s]
101 kPa	801.8	–	–	–	–	4.197	2.873	1.926	1.232	0.665
101.33 kPa	801.75	793.99	786.04	777.85	769.36	–	–	–	–	–

[2], 101.33 kPa, Capillary tube (Ostwald / Ubbelohde) method
Conditions	viscosity [mPa·s]
293.15 K	4.085
303.15 K	2.877
313.15 K	2.091
323.15 K	1.576
333.15 K	1.124

NCCCO [3-amino-1-propanol]
[2]
Conditions	mass density, 293.15 K [kg/m3]	mass density, 303.15 K [kg/m3]	mass density, 313.15 K [kg/m3]	mass density, 323.15 K [kg/m3]	mass density, 333.15 K [kg/m3]	viscosity, 293.15 K	viscosity, 303.15 K [mPa·s]	viscosity, 313.15 K [mPa·s]	viscosity, 323.15 K [mPa·s]	viscosity, 333.15 K
101 kPa	987.65	979.65	971.61	963.52	955.38	40.45 mPa·s and 40.46 mPa·s	23.98	15.31	10.22	6.961 mPa·s and 6.962 mPa·s
101.33 kPa	987.55	979.53	971.47	963.37	955.22	–	–	–	–	–

[2], 101.33 kPa, Capillary tube (Ostwald / Ubbelohde) method
Conditions	viscosity [mPa·s]
293.15 K	40.42
303.15 K	23.87
313.15 K	15.27
323.15 K	10.22
333.15 K	7.123

CC(C)O [propan-2-ol]
[2]
Conditions	mass density, 293.15 K [kg/m3]	mass density, 303.15 K [kg/m3]	mass density, 313.15 K [kg/m3]	mass density, 323.15 K [kg/m3]	mass density, 333.15 K [kg/m3]	viscosity, 293.15 K [mPa·s]	viscosity, 303.15 K [mPa·s]	viscosity, 313.15 K [mPa·s]
101 kPa	785.36	776.87	768.07	758.89	749.25	2.318	1.596	0.996
101.33 kPa	785.25	776.78	767.98	758.82	749.2	–	–	–

[2], 101.33 kPa, Capillary tube (Ostwald / Ubbelohde) method
Conditions	viscosity [mPa·s]
293.15 K	2.362
303.15 K	1.769
313.15 K	1.33
323.15 K	1.014
